Consider 52 molecules from patent publication US12612412B2, “Antiviral heterocyclic compounds” (Enanta Pharmaceuticals, Inc., priority 2021, dated 2026).

One assay relates to genotype A, "Long" strain RSV. Kind of assay: RSV-A assay (CPE protection in Hep-2 cells, ATPlite readout). It is filed as cell-based, Human respiratory syncytial virus (HRSV). As to conditions: human respiratory syncytial virus, RSV-A Long strain, MOI 0.1, CPE protection, read-out: Human RSV-A (“Long”) EC50. Put shortly:
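Hep-2 cells (8,000/well) infected with RSV Long strain at MOI 0.1 in the presence of 2-fold compound dilutions in duplicate. After 5 days, cell viability measured by ATPlite luminescence, normalized between virus-only and uninfected cell controls; EC50 reported.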
Turning to `COc1cc(C(=O)NC[C@](O)(c2cc3c(c(-c4ccc(F)cc4F)n2)OC[C@]3(C)C(N)=O)C2CC2)cc2cn(C3CC3)nc12` [Example 1277], the EC50 was < 200 nM.

In the case of `COc1cc(C(=O)NC[C@](O)(c2cc3c(c(-c4cccc(F)c4Cl)n2)OC[C@]3(C)C(N)=O)C(F)(F)F)cc2cn(C3CC3)nc12` [Example 1107], the EC50 was < 200 nM.

`COc1cc(C(=O)NC[C@](O)(c2cc3c(c(-c4ccc(F)cc4)n2)OC[C@]3(C)C(N)=O)C(F)(F)F)cc2cc(Br)c(C)nc12` [Example 1115]: the EC50 was < 200 nM.

Turning to `Cc1cnc2c(OC(F)F)cc(C(=O)NC[C@](O)(c3cc4c(c(-c5ccc(F)cc5Cl)n3)OC[C@]4(C)C(N)=O)C3CC3)cc2c1` [Example 1215], the EC50 was < 200 nM.

As for `COc1cc(C(=O)NC[C@@](O)(c2cc3c(c(-c4ccc(OC(F)(F)F)cc4)n2)OC[C@]3(C)C(N)=O)C(F)(F)F)cc2cn(C3CC3)nc12` [Example 897], the EC50 is > 200 nM.

As for `COc1cc(C(=O)NC[C@](O)(c2cc3c(c(-c4c(Cl)ccc(Cl)c4F)n2)OC[C@]3(C)C(N)=O)C(F)(F)F)cc2cn(C3CC3)nc12` [Example 1262], the EC50 was < 200 nM.

As to `COc1cc(C(=O)NC[C@](O)(c2cc3c(c(-c4cccc(Cl)c4F)n2)OC[C@]3(C)C(N)=O)C2CC2)cc2cn(C3CC3)nc12` [Example 1283], the EC50 was < 200 nM.

As to `COc1cc(C(=O)NC[C@](O)(c2cc3c(c(-c4ccc(F)cc4)n2)OC[C@]3(C)C(N)=O)C(F)(F)F)cn2nc(N)cc12` [Example 881], the EC50 is < 200 nM.

As for `COc1cc(C(=O)NC[C@@](O)(c2cc3c(c(-c4ccc5c(c4)OC(F)(F)O5)n2)OC[C@]3(C)C(N)=O)C(F)(F)F)cc2cn(C3CC3)nc12` [Example 894], the EC50 was > 200 nM.

For `COc1cc(C(=O)NC[C@](O)(c2cc3c(c(-c4ccc(F)cc4)n2)OC[C@]3(C)C(N)=O)C2CC2)cc2cc(C3CC3)nnc12` [Example 1109], the EC50 was < 200 nM.

For the molecule `COc1cc(C(=O)NC[C@](O)(c2cc3c(c(-c4ccc(F)c(F)c4Cl)n2)OC[C@]3(C)C(=O)NC2(C)CC2)C(F)(F)F)cc2cn(C3CC3)nc12` [Example 1204], the EC50 was < 200 nM.

In the case of `COc1cc(C(=O)NC[C@](O)(c2cc3c(c(-c4ccc5oc(C)nc5c4)n2)OC[C@]3(C)C(N)=O)C(F)(F)F)cc2cn(C3CC3)nc12` [Example 902], the EC50 is > 200 nM.

As to `Cc1cc2cc(C(=O)NC[C@](O)(c3cc4c(c(-c5ccc(F)c(Cl)c5)n3)OC[C@]4(C)C(N)=O)C(F)(F)F)cc(OC3CC3)c2nc1Cl` [Example 1076], the EC50 was < 200 nM.

As to `COc1cc(C(=O)NC[C@](O)(c2cc3c(c(C4CCC(F)(F)CC4)n2)OC[C@]3(C)C(N)=O)C(F)(F)F)cc2cn(C3CC3)nc12` [Example 1268], the EC50 was < 200 nM.

For the molecule `[2H]C([2H])([2H])c1nc2c(OC)cc(C(=O)NC[C@](O)(c3cc4c(c(-c5cc(F)c(F)cc5F)n3)OC[C@]4(C)C(N)=O)C3CC3)cc2cc1Cl` [Example 1288], the EC50 was < 200 nM.

The assay is the same for the next values; noted with them: human respiratory syncytial virus, genotype A “Long” strain RSV, MOI 0.1, CPE protection, read-out: Human RSV-A (“Long”).
Turning to `C[C@]1(C(N)=O)COc2c1cc([C@@](O)(CNC(=O)c1cnc3cc[nH]c3c1)C(F)(F)F)nc2-c1ccc(F)cc1` [Example 343], the EC50 was > 200 nM.

Turning to `CC(C)c1cc(C(=O)NC[C@](O)(c2cc3c(c(-c4ccc(F)cc4)n2)OC[C@]3(C)C(N)=O)C(F)(F)F)cc2cn[nH]c12` [Example 123], the EC50 is < 200 nM.

Take `C[C@@H](O)COc1ccc(C(=O)NC[C@](O)(c2cc3c(c(-c4ccc(F)cc4)n2)OC[C@]3(C)C(N)=O)C2CC2)cc1OC1CC1` [Example 317]: the EC50 is < 200 nM.

On to `Cn1nc(F)c2cc(C(=O)NC[C@](O)(c3cc4c(c(-c5ccc(F)cc5)n3)OC[C@]4(C)C(N)=O)C(F)(F)F)ccc21` [Example 31], for which the EC50 was > 200 nM.

`NC(=O)[C@@]1(CF)COc2c1cc([C@@](O)(CNC(=O)c1cc(F)c3nc(N)sc3c1)C(F)(F)F)nc2-c1ccc(F)cc1` [Example 290]: the EC50 was < 200 nM.

For `COc1cc(C(=O)NC[C@](O)(c2cc3c(c(-c4ccc(F)cc4)n2)OCC3(CF)C(N)=O)C(F)(F)F)cc2cn(C(F)F)nc12` (stereo partly shown) [Example 288], the EC50 is < 200 nM.

Regarding `C[C@]1(C(N)=O)COc2c1cc([C@@](O)(CNC(=O)c1cc(O)c3[nH]ncc3c1)C(F)(F)F)nc2-c1ccc(F)cc1` [Example 111], the EC50 is > 200 nM.

`Cc1cnc2c(NC(=O)N(C)C3CC3)cc(C(=O)NC[C@](O)(c3cc4c(c(-c5ccc(F)cc5)n3)OC[C@]4(C)C(N)=O)C(F)(F)F)cc2c1` [Example 328]: the EC50 was < 200 nM.

Take `C[C@]1(C(N)=O)COc2c1cc([C@@](O)(CNC(=O)c1nccs1)C(F)(F)F)nc2-c1ccc(F)cc1` [Example 396]: the EC50 was > 200 nM.

In the case of `C[C@]1(C(N)=O)COc2c1cc([C@@](O)(CNC(=O)c1ccn3nc(C4CC4)cc3c1)C(F)(F)F)nc2-c1ccc(F)c(Cl)c1` [Example 67], the EC50 was < 200 nM.

For `C[C@]1(C(N)=O)COc2c1cc([C@@](O)(CNC(=O)c1ccc3[nH]ncc3n1)C(F)(F)F)nc2-c1ccc(F)cc1` [Example 403], the EC50 was > 200 nM.

For `NC(=O)C1(C(F)F)COc2c1cc([C@@](O)(CNC(=O)c1cc(F)c3nc(N)sc3c1)C(F)(F)F)nc2-c1ccc(F)cc1` (stereo partly shown) [Example 258], the EC50 is < 200 nM.

As for `C[C@]1(C(N)=O)COc2c1cc([C@@](O)(CNC(=O)c1cc3cc(F)ccc3s1)C(F)(F)F)nc2-c1ccc(F)cc1` [Example 434], the EC50 is > 200 nM.

As for `C[C@]1(C(N)=O)COc2c1cc([C@@](O)(CNC(=O)c1nc(-c3ccccc3)c[nH]1)C(F)(F)F)nc2-c1ccc(F)cc1` [Example 212], the EC50 was > 200 nM.

`C[C@]1(C(N)=O)COc2c1cc([C@@](O)(CNC(=O)c1cnn3ccncc13)C(F)(F)F)nc2-c1ccc(F)cc1` [Example 439]: the EC50 is > 200 nM.

Consider `C[C@]1(C(N)=O)COc2c1cc([C@@](O)(CNC(=O)c1cc[nH]c1)C(F)(F)F)nc2-c1ccc(F)cc1` [Example 349], for which the EC50 is > 200 nM.

With `NC(=O)[C@]1(CF)COc2c1cc([C@@](O)(CNC(=O)c1cc(F)c3nc(N)sc3c1)C(F)(F)F)nc2-c1ccc(F)cc1` [Example 289], the EC50 is > 200 nM.

Consider `Cc1cncnc1C(=O)NC[C@](O)(c1cc2c(c(-c3ccc(F)cc3)n1)OC[C@]2(C)C(N)=O)C(F)(F)F` [Example 410], for which the EC50 was > 200 nM.

Take `C[C@]1(C(N)=O)COc2c1cc([C@@](O)(CNC(=O)c1ccco1)C(F)(F)F)nc2-c1ccc(F)cc1` [Example 404]: the EC50 is > 200 nM.

For `COc1cc(C(=O)NC[C@](O)(c2cc3c(c(-c4ccc(F)cc4)n2)OC[C@]3(C)C(N)=O)C(F)(F)F)nc2cc(C3CC3)nn12` [Example 192], the EC50 was > 200 nM.

Consider `C[C@]1(C(N)=O)COc2c1cc([C@@](O)(CNC(=O)c1cnc3cccnn13)C(F)(F)F)nc2-c1ccc(F)cc1` [Example 409], for which the EC50 is > 200 nM.

Consider `C[C@]1(C(N)=O)COc2c1cc([C@@](O)(CNC(=O)c1cnc3nccn3c1)C(F)(F)F)nc2-c1ccc(F)cc1` [Example 374], for which the EC50 was > 200 nM.

Consider `COc1ccc(-c2cc(C(=O)NC[C@](O)(c3cc4c(c(-c5ccc(F)cc5)n3)OC[C@]4(C)C(N)=O)C(F)(F)F)n[nH]2)cc1` [Example 209], for which the EC50 is > 200 nM.

For the molecule `Cc1cc2ccc(C(=O)NC[C@](O)(c3cc4c(c(-c5ccc(F)cc5)n3)OC[C@]4(C)C(N)=O)C(F)(F)F)cn2c1` [Example 189], the EC50 was > 200 nM.

With `Cn1cc(C(=O)NC[C@](O)(c2cc3c(c(-c4ccc(F)cc4)n2)OC[C@]3(C)C(N)=O)C(F)(F)F)c(-c2ccccc2)n1` [Example 445], the EC50 is > 200 nM.

For the molecule `COc1cc(C(=O)NC[C@](O)(c2cc3c(c(-c4cnc(C#N)c(Cl)c4)n2)OC[C@]3(C)C(N)=O)C(F)(F)F)cc2cc(Cl)c(C)nc12` [Example 584], the EC50 was < 200 nM.

For the molecule `COc1ncc(F)cc1C(=O)NC[C@](O)(c1cc2c(c(-c3ccc(F)cc3)n1)OC[C@]2(C)C(N)=O)C(F)(F)F` [Example 412], the EC50 was > 200 nM.

In the case of `C[C@@H](O)COc1ccc(C(=O)NC[C@](O)(c2cc3c(c(-c4ccc(F)cc4)n2)OC[C@@]3(C(N)=O)C2CC2)C(F)(F)F)cc1OC1CC1` [Example 278], the EC50 was < 200 nM.

Regarding `C[C@]1(C(N)=O)COc2c1cc([C@@](O)(CNC(=O)c1cc(Cl)cc3[nH]ncc13)C(F)(F)F)nc2-c1ccc(F)cc1` [Example 414], the EC50 was > 200 nM.

On to `COc1ccccc1-c1cc(C(=O)NC[C@](O)(c2cc3c(c(-c4ccc(F)cc4)n2)OC[C@]3(C)C(N)=O)C(F)(F)F)n[nH]1` [Example 207], for which the EC50 was > 200 nM.

As to `COc1cc(C(=O)NC[C@](O)(c2cc3c(c(-c4ccc(F)c(Cl)c4)n2)OC[C@]3(C)C(N)=O)C2CC2)cn2cc(C3CC3)nc12` [Example 634], the EC50 was < 200 nM.

In the case of `C[C@]1(C(N)=O)COc2c1cc([C@@](O)(CNC(=O)c1cnc3nc(C4CC4)sc3c1)C(F)(F)F)nc2-c1ccc(F)cc1` [Example 21], the EC50 is < 200 nM.

For `C[C@]1(C(N)=O)COc2c1cc([C@@](O)(CNC(=O)c1cc(F)c3nc(C(N)=O)cn3c1)C(F)(F)F)nc2-c1ccc(F)cc1` [Example 79], the EC50 was > 200 nM.

For the molecule `COc1cc(C(=O)NC[C@](O)(c2cc3c(c(-c4ccc(F)cc4)n2)OCC3(C(N)=O)C(F)F)C(F)(F)F)cc2cccnc12` (stereo partly shown) [Example 254], the EC50 is < 200 nM.

`C[C@]1(C(N)=O)COc2c1cc([C@@](O)(CNC(=O)c1cc(F)c3cnn(C4CC4)c3c1)C(F)(F)F)nc2-c1ccc(F)cc1` [Example 146]: the EC50 is > 200 nM.

As for `COc1ccc2nc(C(=O)NC[C@](O)(c3cc4c(c(-c5ccc(F)cc5)n3)OC[C@]4(C)C(N)=O)C(F)(F)F)sc2c1` [Example 394], the EC50 was > 200 nM.

In the case of `Cc1cccc2nc(C(=O)NC[C@](O)(c3cc4c(c(-c5ccc(F)cc5)n3)OC[C@]4(C)C(N)=O)C(F)(F)F)cn12` [Example 807], the EC50 was > 200 nM.
